The source of these data is patent publication US9133197B2, “Oxidated derivatives of triazolylpurines useful as ligands of the adenosine A2A receptor and their use as medicaments” (SIGMA-TAU INDUSTRIE FARMACEUTICHE RIUNITE S.P.A., priority 2009, dated 2015).

The structures appear in SMILES notation.

For assay [1], the target named is T1, human adenosine A2a receptor (Homo sapiens (Human), UniProt P29274). Put plainly: Inhibition of NECA-induced cAMP accumulation in HEK 293 cells. Format: cell-based. Particulars: HEK 293 cells expressing human A2a; 100 nmol/l NECA; mean of four experiments. The method, then:
The compounds of the present invention were tested to assess their capacity to inhibit cAMP accumulation induced by the A2A agonist 5′-N-ethylcarboxamidoadenosine (NECA).
cAMP quantitative determination was performed with an enzyme immunoassay system (cat. RPN2255, Amersham Biosciences) according to manufacturer's instructions. HEK 293 cells, stably expressing the human adenosine A2a receptor gene (PerkinElmer, Boston, Mass., USA, cat. RBHA2AC), were grown in Falcon flasks in DMEM (Cambrex, Verviers, Belgium) supplemented with 10% FBS (Cambrex), 1 mmol/l sodium pyruvate (Sigma-Aldrich, St. Louis, Mo., USA), and 0.4 mg/ml G418 (Sigma-Aldrich) at 37° C. in a 5% CO2 atmosphere. Cells were plated on 96-well dishes at a concentration of 10^3 cells/well 48 hours before test compound exposure. Before cell stimulation with the compounds, cells were treated for 10 min at 37° C. with 0.5 mmol/l of the phosphodiesterase inhibitor Ro 20-1724 (Sigma-Aldrich) and with 2 U/ml of adenosine deaminase (ADA, Sigma-Aldrich). Medium was then changed with fresh medium containing scalar concentrations of test compounds (10^−10-10^−4 mol/l) at 37° C. and, after 10 min, 100 nmol/l NECA was added. cAMP was extracted 20 min after and quantified.
Data were analyzed by nonlinear regression analysis with GraphPad PRISM commercial software. Test compound concentrations causing a half maximal inhibition of control values (IC50 calculated by GraphPad Prism software) was reported (mean±SEM of four independent experiments).
Background: Changes in cAMP serve as a functional read-out for many G protein-coupled receptors.

The subject of assay [2] is battery of 51 different receptors. Put plainly: Selectivity profile: affinity toward a battery of 51 different receptors. It counts as binding, human. Particulars: tested at 10 μM. An excerpt: The majority of the 51 assays were human recombinant receptors of the following types: adenosine, adrenergic, cannabinoid, dopamine, GABA, histamine, melatonin, muscarinic, prostanoid and serotonin receptors belonging to non peptide receptors family; angiotensin-II, bradychinin, chemokines, cholecistokinin, endothelin, galanin, melacortin, neurokinin, neuropeptide Y, neurotensin, opioid and opioid like, somatostatin, vasoactive intestinal peptide and vasopressin receptors belonging to peptide receptors family; Ca^2+ channel, K^+ channel and Na^+ channel belonging to the ion channel family and dopamine, norepinephrine and serotonin belonging to the amine transporters receptors family.” These three compounds were tested at a concentration of 10 μM.

Assay [3] relates to haloperidol-induced catalepsy in CD1 mice. Put plainly: Haloperidol-induced catalepsy mice model. Format: in vivo. Particulars: oral 10, 20 or 40 mg/kg, haloperidol 2 mg/kg i.p., AUC of catalepsy time over 7 h. The protocol: Haloperidol (2 mg/kg) was injected i.p. to CD1 mice 2.5 h before oral administration of ST3932 or ST4206. The latter were administered at doses of 10, 20 or 40 mg/kg.
Then, each CD1 mouse was gently placed by its forepaws on a wire at a height of 4.5 cm. Catalepsy was measured as the time (expressed in seconds) necessary for the animal to step down with at least one forepaw, with an end point of 60 seconds, time after which the mouse was gently removed from the wire. Then, catalepsy was scored every 60 min for seven h.
All data were expressed both as individual and mean values, plus or minus standard error (Mean±SEM) of catalepsy time in seconds. Statistical analysis was performed using sigma stat program. After calculation of AUC throughout 7 hours, the one-way ANOVA followed by Dunnett's test were used.

Assay [4] deals with T1, human adenosine A2a receptor. As to the kind of experiment: A2a receptor competition binding assay ([3H]ZM241385). Particulars: membranes of HEK293 cells expressing human A2a; [3H]ZM241385 2 nmol/l; Ki from IC50 by Cheng and Prusoff. The protocol:
HEK293 cells, stably expressing the human adenosine A2a receptor gene (PerkinElmer, Boston, Mass., USA, cat. RBHA2AC), were grown in Falcon flasks in DMEM (Cambrex, Verviers, Belgium) supplemented with 10% FBS (Cambrex), 1 mmol/l sodium pyruvate (Sigma-Aldrich, Saint Louis, Mo., USA), 0.4 mg/ml G418 (Sigma-Aldrich) at 37° C. in a 5% CO2 atmosphere. For radioligand binding experiments, the cells were collected at 80% of confluence, in 5 mmol/l Tris-HCl (Sigma-Aldrich), pH 7.4, containing 2 mmol/l EDTA, counted, washed in PBS (Cambrex), resuspended in incubation buffer A containing 50 mmol/l Tris-HCl, pH 7.4, 10 mmol/l MgCl2 (Sigma-Aldrich) and homogenized using an Ultra Turrax T25. The membranes were centrifuged and homogenized once again and the final pellet was stored at −80° C. until use. Prior to the competition binding assay, the pellet was resuspended in buffer A at the desired protein concentration and membrane suspension was incubated with 2 U/ml adenosine deaminase (ADA, Sigma-Aldrich) for 30 min at 37° C. to remove endogenous adenosine.
The protein concentration of membrane suspension was determined using the Bradford method (Pierce, Rockford, Ill., USA) with bovine albumin as standard. Competition binding experiments were performed by incubating membranes (5-10 μg of protein/sample) with a single concentration of the A2a antagonist [^3H]ZM241385 (Biotrend, Cologne, Germany) (2 nmol/l), in the presence of various concentrations (ranging from 10^−5 to 10^−11 mol/l) of test and reference compounds in 96-well filter plates (MultiScreen system, cat. MAFBN0B10, Millipore, Billerica, Mass., USA) for one h at 4° C. in a total volume of 200 μl/well of appropriate buffer (50 mmol/l Tris-HCl, pH 7.4, 10 mmol/l MgCl2). Nonspecific binding was determined in the presence of 10 μmol/l cold ZM241385 (Tocris, Ellisville, Mo., USA). At the end of incubation, bound and free radioligands were separated by filtering the 96-well filter plates using a Millipore filtration apparatus (MultiScreenHTS vacuum manifold). Filter plates were then washed several times with ice-cold buffer (50 mmol/l Tris-HCl, pH 7.4) and filter-bound radioactivity measured using a MicroBeta counter (PerkinElmer) after addition of 30 μl/well of OptiPhase SuperMix scintillation cocktail (PerkinElmer). Four experiments were performed in triplicate by JANUS® automated workstation (Perkin Elmer).
Data were analyzed by nonlinear regression analysis with GraphPad PRISM commercial software and expressed as IC50, defined as the concentration of compounds that inhibits 50% of [^3H]ZM241385 binding. Inhibitory binding constant (Ki) values were calculated from IC50 values according to the Cheng and Prusoff equation Ki=IC50/(1+[C]/Kd), where [C] is the concentration of the radioligand and Kd its dissociation constant.

Assay [5] concerns the target human adenosine A1 receptor (Homo sapiens (Human), UniProt P30542). As to the kind of experiment: A1 receptor competition binding assay ([3H]DPCPX). Particulars: membranes of CHO-K1 cells expressing human A1; [3H]DPCPX 1.7 nmol/l; Ki from IC50 by Cheng and Prusoff. The protocol: Competition binding experiments have been performed incubating membranes from CHO-K1 cells stably transfected with the human adenosine A1 receptor (cat. ES-010-M400UA, Perkin Elmer, Boston, Mass., USA) (5-10 μg of protein/sample) with a single concentration of [3H]DPCPX (1.7 nmol/l) (Perkin Elmer), in the presence of various concentrations (ranging from 10^−5 to 10^−10 M) of cold DPCPX, ST4206 and ST4208 in 96-well filter plates (MultiScreen system, cat #MAFBN0B10, Millipore, Billerica, Mass., USA) for 60 min at 25° C. in a total volume of 200 μL/well of 25 mmol/l Hepes, 5 mmol/L MgCl2, 1 mmol/l CaCl2, 100 mmol/L NaCl, pH 7.4 (all from Sigma-Aldrich). Non-specific binding has been determined in the presence of 250 μmol/l of cold DPCPX (8-cyclopentyl-1,3-dipropylxanthine, Sigma-Aldrich). At the end of incubation, bound and free radioligands have been separated by filtering the 96-well filter plates using a Millipore filtration apparatus (MultiscreenHTS vacuum manifold). Filter plates have been washed several times with ice-cold buffer (50 mmol/l Tris-HCl, pH 7.4) and filter-bound radioactivity measured using a MicroBeta counter (PerkinElmer) after addition of 30 μL/well of OptiPhase SuperMix scintillation cocktail (PerkinElmer).
Data have been analyzed using nonlinear regression with GraphPad PRISM commercial software. Data will be expressed as test compound concentration causing a half maximal inhibition of control values (IC50). Inhibitory binding constant (Ki) values will be calculated from IC50 values, according to the Cheng and Prusoff equation K1=IC50/(1+[C]/Kd), where [C] is the concentration of the radioligand and Kd its dissociation constant.

For assay [6], the system named is 6-OHDA lesioned rats. Put plainly: Enhancement of L-DOPA antiparkinsonian activity, 6-OHDA lesioned rats. It counts as in vivo, Rats (Sprague Dawley). Particulars: 10, 20, 40 mg/kg with threshold dose of L-Dopa (6 mg benserazide + 3 mg L-DOPA); 6-OHDA rats. The protocol: Rats (Sprague Dawley) under chloral hydrate (400 mg/kg) anaesthesia were placed in a Kopf stereotaxic apparatus. Through a stainless steel cannula, 6-OHDA was injected at a rate of 1 μl/min into the left medial forebrain bundle at coordinates A=−2.2, L=+1.5 and V=−7.8, according to the Pellegrino atlas. All rats, including shams, were treated with desipramine (10 mg/kg) 10 min before anaesthesia to prevent damage to noradrenergic neurons.
Two weeks after the 6-OHDA injection, all animals were tested for their contra lateral rotation capacity in response to 30 mg/kg i.p. benserazide followed by 50 mg/kg i.p. of L-Dopa 30 min later. Rats not showing at least 200 contra lateral rotations within the 3 h testing period were eliminated from the study. One week after this test, selected animals were randomized to be enrolled in three studies. Each study involved seven groups of eight animals.
Tested compounds (ST3829, ST3932 and ST4206) were dissolved in a solution containing 10% sucrose and 0.3% Tween 80 in sterile water in order to obtain three different dosage forms (i.e., 10, 20 and 40 mg/kg).
In groups 5, 6 and 7 benserazide was administered first, followed by the tested compound 25 min after and finally by L-DOPA 5 min later.

Chain of human adenosine A1 receptor (P30542 whole entry): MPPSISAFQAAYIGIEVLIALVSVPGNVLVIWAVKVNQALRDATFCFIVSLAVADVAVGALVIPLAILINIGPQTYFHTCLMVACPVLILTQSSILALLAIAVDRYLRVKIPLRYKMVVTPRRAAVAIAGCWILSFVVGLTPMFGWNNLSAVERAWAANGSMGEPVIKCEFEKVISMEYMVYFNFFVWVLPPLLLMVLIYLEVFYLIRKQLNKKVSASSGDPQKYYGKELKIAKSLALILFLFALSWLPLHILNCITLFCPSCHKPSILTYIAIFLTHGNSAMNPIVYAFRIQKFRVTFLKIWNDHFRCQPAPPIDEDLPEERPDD
T1 sequence (P29274 whole entry): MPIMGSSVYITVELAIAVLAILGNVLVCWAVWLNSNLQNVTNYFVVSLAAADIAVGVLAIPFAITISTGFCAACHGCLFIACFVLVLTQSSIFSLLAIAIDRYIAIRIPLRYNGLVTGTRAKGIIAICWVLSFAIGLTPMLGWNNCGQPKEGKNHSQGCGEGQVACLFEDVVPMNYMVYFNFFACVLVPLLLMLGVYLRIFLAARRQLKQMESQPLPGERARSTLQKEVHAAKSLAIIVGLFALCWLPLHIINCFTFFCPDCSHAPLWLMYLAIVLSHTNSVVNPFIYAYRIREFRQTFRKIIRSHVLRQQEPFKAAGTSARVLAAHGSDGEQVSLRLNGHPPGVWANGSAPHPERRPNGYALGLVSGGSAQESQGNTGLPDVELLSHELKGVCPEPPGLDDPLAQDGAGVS

`CC(O)CCc1nc(N)c2nc(-n3nccn3)n(C)c2n1` (stereo not drawn) [Example 2, 4-(6-Amino-9-methyl-8[1,2,3]triazol-2-yl-9H-purin-2-yl)butan-2-ol] registered an IC50 in assay [1] of 450 nM. Further, the “affinity toward 51 receptors” value in assay [2] is reported as “none of them demonstrated any substantial affinity”. Further, in assay [3], the “antagonism of haloperidol-induced catalepsy” value is reported as “significantly antagonized haloperidol-induced catalepsy in a dose-dependent manner”. In addition, the Ki in assay [4] came out at 8 nM; in assay [5] it was 27 nM. In addition, in assay [6], the “contralateral turning behaviour induced by L-Dopa” value is recorded as “increased the contralateral turning behaviour induced by L-Dopa”.
In turn, `CC(=O)CCc1nc(N)c2nc(-n3nccn3)n(C)c2n1` [Example 7, 4-(6-Amino-9-methyl-8[1,2,3]triazol-2-yl-9H-purin-2-yl)-butan-2-one] showed an IC50 in assay [1] of 990 nM. Further, the “antagonism of haloperidol-induced catalepsy” value in assay [3] is “significantly antagonized haloperidol-induced catalepsy in a dose-dependent manner”. For the same compound, the values for the Ki in assay [4] and in assay [5] were 12 nM and 197 nM, respectively. Besides, in assay [6], the “contralateral turning behaviour induced by L-Dopa” value was “increased the contralateral turning behaviour induced by L-Dopa”.
The compound `CCCC(=O)c1nc(N)c2nc(-n3nccn3)n(C)c2n1` [Example 6, 1-(6-Amino-9-methyl-8-[1,2,3]triazol-2-yl-9H-purin-2-yl)-butan-1-one] gave an IC50 in assay [1] of 2920 nM. For the same compound, the Ki in assay [4] was 19 nM; in assay [5], 216 nM.
For the compound `C[C@@H](O)CCc1nc(N)c2nc(-n3nccn3)n(C)c2n1` [Example 4, (R)-4-(6-Amino-9-methyl-8-[1,2,3]triazol-2-yl-9H-purin-2-yl)butan-2-ol], it took 420 nM to reach half-maximal inhibition in assay [1] (IC50). The affinity in assay [4] corresponds to a Ki of 8 nM.
The like results for `C[C@H](O)CCc1nc(N)c2nc(-n3nccn3)n(C)c2n1` [Example 3, (S)-4-(6-Amino-9-methyl-8-[1,2,3]triazol-2-yl-9H-purin-2-yl)butan-2-ol] were, in that order, 260 nM and 19 nM.
Turning to `Cn1c(-n2nccn2)nc2c(N)nc(CCCCO)nc21` [Example 1, 4-(6-Amino-9-methyl-8[1,2,3]triazol-2-yl-9H-purin-2-yl)butan-1-ol], in assay [1], the IC50 was determined as 2120 nM. Moreover, the “affinity toward 51 receptors” value in assay [2] was “none of them demonstrated any substantial affinity”. Moreover, the Ki in assay [4] came out at 53 nM; in assay [5], 51 nM.
Compound `CCCC(O)c1nc(N)c2nc(-n3nccn3)n(C)c2n1` (stereo not drawn) [Example 5, 1-(6-Amino-9-methyl-8-[1,2,3]triazol-2-yl-9H-purin-2-yl)butan-1-ol] gave an IC50 in assay [1] of 2320 nM. Further, in assay [2], the “affinity toward 51 receptors” value is reported as “none of them demonstrated any substantial affinity”. Besides, the values for the Ki in assay [4] and in assay [5] were 22 nM and 120 nM, respectively. In addition, the “contralateral turning behaviour induced by L-Dopa” value in assay [6] is “efficacy of ST3829 at increasing the number of contralateral rotation”.

The term IC50 denotes the concentration at which inhibition is half-maximal. High values mean weaker potency, low ones greater potency. In general, Ki refers to the dissociation constant of the complex between target and ligand, obtained from inhibition or displacement. High values mean a looser hold on the target, low ones a stronger hold on the target.
